# What was measured:
# Sphingosine kinase 1 = Sphingosine kinase 1 (Homo sapiens, UniProt Q9NYA1); assay: Inhibition of GFP-tagged SK1 (unknown origin) expressed in HEK293 cells using Sph as substrate measured after 30 mins in presence of [gamma32P]ATP by Cerenkov counting analysis; type: cell-based
# Sphingosine kinase 2 [1] = biological target: T1, Sphingosine kinase 2 (Homo sapiens, UniProt Q9NRA0); assay: Inhibition of recombinant human full-length N-terminal His-tagged SK2 expressed in baculovirus infected Sf9 insect cells using Sph as substrate measured after 30 mins in presence of [gamma32P]ATP by Cerenkov counting analysis
# T1 sequence (Q9NRA0 whole entry): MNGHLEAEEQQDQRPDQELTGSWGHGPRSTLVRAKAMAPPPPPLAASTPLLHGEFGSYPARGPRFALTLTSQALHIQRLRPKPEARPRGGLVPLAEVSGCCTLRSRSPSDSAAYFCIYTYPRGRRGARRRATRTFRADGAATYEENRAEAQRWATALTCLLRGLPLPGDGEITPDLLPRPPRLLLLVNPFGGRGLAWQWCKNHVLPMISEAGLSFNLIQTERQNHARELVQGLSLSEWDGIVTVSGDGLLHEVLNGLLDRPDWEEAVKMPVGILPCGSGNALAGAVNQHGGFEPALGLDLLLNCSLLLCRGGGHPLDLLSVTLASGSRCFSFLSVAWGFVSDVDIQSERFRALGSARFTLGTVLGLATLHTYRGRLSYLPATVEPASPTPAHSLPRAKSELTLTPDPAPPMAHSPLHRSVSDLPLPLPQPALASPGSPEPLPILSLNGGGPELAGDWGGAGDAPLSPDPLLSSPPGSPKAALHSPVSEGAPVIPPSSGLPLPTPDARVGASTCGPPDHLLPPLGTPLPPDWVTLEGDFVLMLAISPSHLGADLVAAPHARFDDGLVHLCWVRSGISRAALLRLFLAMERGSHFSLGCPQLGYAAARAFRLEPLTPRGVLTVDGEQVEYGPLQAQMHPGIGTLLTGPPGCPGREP
# Homo sapiens = species: Homo sapiens; assay: Selectivity index, ratio of IC50 for GFP-tagged SK1 (unknown origin) expressed in HEK293 cells to IC50 for purified SK2 (unknown origin)
# [2] = biological target: T2, Sphingosine kinase 2 (Homo sapiens) (UniProt Q9NRA0); assay: Inhibition of recombinant human full-length N-terminal His-tagged SK2 expressed in baculovirus infected Sf9 insect cells at 3 uM using Sph as substrate measured after 30 mins in presence of [gamma32P]ATP by Cerenkov counting analysis relative to control
# T2 sequence (whole entry): T1 sequence (Q9NRA0 whole entry)
# Sphingosine kinase 2 [3] = biological target: T1, Sphingosine kinase 2; assay: Inhibition of SK2 (unknown origin)
# Sequence of Sphingosine kinase 1 (Q9NYA1 whole entry): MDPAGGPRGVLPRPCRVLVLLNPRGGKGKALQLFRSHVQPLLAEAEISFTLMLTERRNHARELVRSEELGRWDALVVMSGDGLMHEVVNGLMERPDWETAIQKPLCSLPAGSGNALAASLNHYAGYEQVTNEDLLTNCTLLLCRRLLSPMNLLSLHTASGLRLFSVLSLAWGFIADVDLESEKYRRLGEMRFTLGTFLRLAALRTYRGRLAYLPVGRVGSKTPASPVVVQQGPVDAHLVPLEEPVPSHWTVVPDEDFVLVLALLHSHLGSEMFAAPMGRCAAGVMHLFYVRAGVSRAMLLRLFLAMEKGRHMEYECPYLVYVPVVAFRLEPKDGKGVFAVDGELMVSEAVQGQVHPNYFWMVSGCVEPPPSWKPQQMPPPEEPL
Structure (SMILES),IC50 (Sphingosine kinase 1),IC50 (Sphingosine kinase 2 [1]),inhibition [2],Ki (Sphingosine kinase 2 [3]),Ratio IC50 (Homo sapiens)
OC[C@H]1CCCN1Cc1ccc(COc2cccc(OCc3ccccc3)c2)cc1,14 nM,16 nM,,,0.88
O=S(=O)(Cc1cccc(OCc2ccc(CN3CCC[C@@H]3CO)cc2)c1)c1ccccc1,144 nM,,16%,,< 0.048
OC[C@H]1CCCN1Cc1ccc(COc2cccc(CCc3ccccc3)c2)cc1,26 nM,35 nM,,,0.74
OC[C@H]1CCCN1Cc1ccc(COc2cccc(OCc3cccc(F)c3)c2)cc1,9 nM,143 nM,,,0.063
OC[C@H]1CCCN1Cc1ccc(COc2cccc(OCc3ccccc3F)c2)cc1,41 nM,55 nM,,,0.75
Oc1ccc(Nc2nc(-c3ccc(Cl)cc3)cs2)cc1,,,,6700 nM,
OC[C@H]1CCCN1Cc1ccc(COc2cccc(SCc3ccc(F)cc3)c2)cc1,765 nM,17 nM,,,45
OC[C@H]1CCCN1Cc1ccc(COc2cccc(SCc3ccccc3)c2)cc1,137 nM,26 nM,,,5.3
OC[C@H]1CCCN1Cc1ccc(COc2cccc(OCc3ccccc3Cl)c2)cc1,39 nM,151 nM,,,0.26
O=S(=O)(Oc1cccc(OCc2ccc(CN3CCC[C@@H]3CO)cc2)c1)c1ccccc1,11 nM,902 nM,,,0.012

# Now from value to molecule, other results behind:
IC50 (Sphingosine kinase 1),IC50 (Sphingosine kinase 2 [1]),inhibition [2],Ki (Sphingosine kinase 2 [3]),Structure (SMILES),Ratio IC50 (Homo sapiens)
170 nM,49 nM,,,OC[C@H]1CCCN1Cc1ccc(COc2cccc(OCc3ccc(F)cc3)c2)cc1,3.5
> 3000 nM,1120 nM,,,N#Cc1ccc(COc2cccc(OCc3ccc(CN4CCC[C@@H]4CO)cc3)c2)cc1,> 2.7
2360 nM,31 nM,,,OC[C@H]1CCCN1Cc1ccc(COc2cccc(SCc3ccc(Cl)cc3)c2)cc1,76
44 nM,412 nM,,,OC[C@H]1CCCN1Cc1ccc(COc2cccc(OCc3cccc(Cl)c3)c2)cc1,0.11
> 3000 nM,119 nM,,,COc1ccc(COc2cccc(OCc3ccc(CN4CCC[C@@H]4CO)cc3)c2)cc1,> 25
4130 nM,41 nM,,,OC[C@H]1CCCN1Cc1ccc(COc2cccc(OCc3ccc(Cl)cc3)c2)cc1,101
